Data as given in PubChem BioAssay (NCI).
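Each compound was tested at five concentrations against cells in 96-well plates for 48 hours. TGI: total growth inhibition.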

Legend:
Assay in all cases: NCI-60 cell line screen, 48 h
RXF 393 renal = tested on: RXF 393 renal
HCT-15 colon = tested on: HCT-15 colon
NCI-H226 lung = tested on: NCI-H226 lung
CAKI-1 renal = tested on: CAKI-1 renal
DU-145 prostate = tested on: DU-145 prostate
SK-MEL-2 melanoma = tested on: SK-MEL-2 melanoma
T-47D breast = tested on: T-47D breast
SR leukemia = tested on: SR leukemia
MALME-3M melanoma = tested on: MALME-3M melanoma
TK-10 renal = tested on: TK-10 renal
K-562 leukemia = tested on: K-562 leukemia
NCI-H522 lung = tested on: NCI-H522 lung
SW-620 colon = tested on: SW-620 colon
SNB-19 CNS = tested on: SNB-19 CNS
MOLT-4 leukemia = tested on: MOLT-4 leukemia
LOX IMVI melanoma = tested on: LOX IMVI melanoma
SK-OV-3 ovarian = tested on: SK-OV-3 ovarian
SN12C renal = tested on: SN12C renal
786-0 renal = tested on: 786-0 renal
NCI-H460 lung = tested on: NCI-H460 lung
SF-539 CNS = tested on: SF-539 CNS
HT29 colon = tested on: HT29 colon
COLO 205 colon = tested on: COLO 205 colon
SF-268 CNS = tested on: SF-268 CNS
U251 CNS = tested on: U251 CNS
SNB-75 CNS = tested on: SNB-75 CNS
HOP-62 NSCLC = tested on: HOP-62 NSCLC
HOP-92 NSCLC = tested on: HOP-92 NSCLC
OVCAR-8 ovarian = tested on: OVCAR-8 ovarian
RPMI-8226 leukemia = tested on: RPMI-8226 leukemia
MDA-MB-231 breast = tested on: MDA-MB-231 breast
MDA-N = tested on: MDA-N
NCI/ADR-RES ovarian = tested on: NCI/ADR-RES ovarian
HL-60(TB) leukemia = tested on: HL-60(TB) leukemia
NCI-H23 lung = tested on: NCI-H23 lung
SF-295 CNS = tested on: SF-295 CNS
SK-MEL-28 melanoma = tested on: SK-MEL-28 melanoma
IGROV1 ovarian = tested on: IGROV1 ovarian
OVCAR-5 ovarian = tested on: OVCAR-5 ovarian
HS 578T breast = tested on: HS 578T breast
OVCAR-3 ovarian = tested on: OVCAR-3 ovarian
OVCAR-4 ovarian = tested on: OVCAR-4 ovarian
A549 NSCLC = tested on: A549 NSCLC
HCT-116 colon = tested on: HCT-116 colon
CCRF-CEM leukemia = tested on: CCRF-CEM leukemia
EKVX NSCLC = tested on: EKVX NSCLC
BT-549 breast = tested on: BT-549 breast
M14 melanoma = tested on: M14 melanoma
UACC-257 melanoma = tested on: UACC-257 melanoma
SK-MEL-5 melanoma = tested on: SK-MEL-5 melanoma
UO-31 renal = tested on: UO-31 renal
PC-3 prostate = tested on: PC-3 prostate
ACHN renal = tested on: ACHN renal
MDA-MB-435 = tested on: MDA-MB-435
KM12 colon = tested on: KM12 colon
HCC-2998 colon = tested on: HCC-2998 colon
UACC-62 melanoma = tested on: UACC-62 melanoma
A498 renal = tested on: A498 renal
MCF7 breast = tested on: MCF7 breast

Measured: TGI

O=C(c1cccnc1)N1N=C(c2ccccc2)CC1(O)c1cc(F)c(Cl)cc1Cl (stereo not given)
58.5 µM: ACHN renal
45.8 µM: SK-MEL-2 melanoma
30.6 µM: HCT-116 colon
83 µM: MALME-3M melanoma
43.1 µM: BT-549 breast
65.5 µM: SK-MEL-28 melanoma
72.2 µM: PC-3 prostate
30 µM: LOX IMVI melanoma
55.6 µM: RPMI-8226 leukemia
32.4 µM: U251 CNS
67 µM: SR leukemia
34.9 µM: RXF 393 renal
83.7 µM: NCI/ADR-RES ovarian
62.4 µM: T-47D breast
53.7 µM: M14 melanoma
39.1 µM: HOP-62 NSCLC
59.5 µM: HOP-92 NSCLC
44.7 µM: NCI-H460 lung
24.5 µM: OVCAR-3 ovarian
52.9 µM: SNB-75 CNS
93.4 µM: HCT-15 colon
79.5 µM: HS 578T breast
53.6 µM: 786-0 renal
39.6 µM: SN12C renal
51.3 µM: HL-60(TB) leukemia
31 µM: COLO 205 colon
36.3 µM: NCI-H226 lung
32.3 µM: SF-539 CNS
36.9 µM: SF-295 CNS
39.7 µM: UACC-257 melanoma
80.4 µM: K-562 leukemia
27.6 µM: SK-MEL-5 melanoma
59.9 µM: IGROV1 ovarian
35.4 µM: MDA-MB-231 breast
not listed: HCC-2998 colon | UACC-62 melanoma | A498 renal | MCF7 breast
> 100 µM: all other assays above

CC(C(=O)c1ccncc1)c1ccccn1 (stereo not given)
not listed: SR leukemia | MOLT-4 leukemia | SF-539 CNS | SNB-75 CNS
> 100 µM: all other assays above
